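Interpolation was linear, between the two tested concentrations surrounding the appropriate level; five concentrations were tested over 48 hours in 96-well plates. Abbreviation: GI50, concentration required for 50% inhibition of growth. TGI: total growth inhibition.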
Legend:
Assay in all cases: NCI-60 cell line screen, 48 h
HT29 colon = system: HT29 colon
UACC-257 melanoma = system: UACC-257 melanoma
UO-31 renal = system: UO-31 renal
MDA-MB-435 = system: MDA-MB-435
NCI/ADR-RES ovarian = system: NCI/ADR-RES ovarian
CAKI-1 renal = system: CAKI-1 renal
SW-620 colon = system: SW-620 colon
COLO 205 colon = system: COLO 205 colon

Compound	GI50 (HT29 colon)	TGI (HT29 colon)	GI50 (UACC-257 melanoma)	TGI (UACC-257 melanoma)	GI50 (UO-31 renal)	TGI (UO-31 renal)	GI50 (MDA-MB-435)	TGI (MDA-MB-435)	GI50 (NCI/ADR-RES ovarian)	TGI (NCI/ADR-RES ovarian)	GI50 (CAKI-1 renal)	TGI (CAKI-1 renal)	GI50 (SW-620 colon)	TGI (SW-620 colon)	GI50 (COLO 205 colon)	TGI (COLO 205 colon)
COc1cc(OC)c(C(=O)/C=C/c2cccc(C#N)c2)c(OC)c1	1.69 µM	5.87 µM	2.1 µM	8.69 µM	1.13 µM	4.86 µM	1.42 µM	6.38 µM	1.44 µM	10.5 µM	2.03 µM	7.16 µM	1.46 µM	5.15 µM	1.79 µM	6.04 µM
OCCn1cnc2c(SCc3ccccc3)ncnc21	–	> 100 µM	–	> 100 µM	–	> 100 µM	–	> 100 µM	–	> 100 µM	–	> 100 µM	–	> 100 µM	–	> 100 µM
CCc1ccc2c(c1)C(=O)c1c-2n(CCCN=[N+]=[N-])c(=O)c2cc(OC)c(OC)cc12	> 100 µM	> 100 µM	> 100 µM	> 100 µM	> 100 µM	> 100 µM	> 100 µM	> 100 µM	> 100 µM	> 100 µM	–	–	> 100 µM	> 100 µM	> 100 µM	> 100 µM
Cc1ccc(-c2csc(NC(=O)N3CCN(c4cc5c(cc4F)c(=O)c(C(=O)O)cn5C4CC4)CC3)n2)cc1	0.307 µM	> 100 µM	2 µM	6.58 µM	0.36 µM	> 100 µM	2.06 µM	> 100 µM	4.65 µM	> 100 µM	–	–	1.9 µM	> 100 µM	1.92 µM	6 µM
Cc1cn2c(/C=C3/C(=O)Nc4ccc(O)cc43)c(C)nc2s1	2.47 µM	> 100 µM	7.85 µM	> 47.1 µM	26.5 µM	> 100 µM	0.169 µM	1.15 µM	20.9 µM	> 70.6 µM	3.28 µM	19.8 µM	2.88 µM	> 100 µM	3.58 µM	> 100 µM
COC(=O)c1cc2ccccc2c2c3c(ccc12)OCO3	33.7 µM	> 1000 µM	199 µM	> 1000 µM	224 µM	> 1000 µM	531 µM	> 1000 µM	54.4 µM	> 1000 µM	278 µM	> 1000 µM	900 µM	> 1000 µM	–	> 1000 µM
C#CCNCCN1C(=O)c2ccc3c4c(ccc(c24)C1=O)C(=O)N(CCNCC#C)C3=O	1.65 µM	6.2 µM	3.08 µM	9.65 µM	3.09 µM	12.3 µM	1.52 µM	5.85 µM	4.07 µM	24.4 µM	5.05 µM	15.6 µM	1.92 µM	11.8 µM	2 µM	6.92 µM
Cc1ccc(C(=O)NC2CCC2)cc1-c1ccc(C(=O)NCC2CC2)cc1	> 25 µM	> 25 µM	> 25 µM	> 25 µM	> 25 µM	> 25 µM	> 25 µM	> 25 µM	> 25 µM	> 25 µM	> 25 µM	> 25 µM	> 25 µM	> 25 µM	> 25 µM	> 25 µM
Nc1ccccc1C#C/C=C\C#Cc1cccc(O)c1	11.4 µM	41.7 µM	10.2 µM	23.4 µM	–	13.9 µM	1.5 µM	4.12 µM	2.39 µM	10.3 µM	8.08 µM	36.2 µM	3.12 µM	15.2 µM	8.45 µM	23 µM
COc1cnc2c(c1)C(=O)c1c-2n(CCCNC2=NCCS2)c(=O)c2cc(Cl)ccc12	0.121 µM	2.23 µM	1.53 µM	3.11 µM	0.163 µM	1.74 µM	1.43 µM	2.76 µM	–	–	0.0444 µM	1.6 µM	0.146 µM	2.08 µM	1.06 µM	2.41 µM
CN(C)c1ccc(C(=NO)c2ccc(N(C)C)cc2)cc1	3.6 µM	> 100 µM	5.12 µM	> 100 µM	4.73 µM	> 100 µM	0.277 µM	1.92 µM	–	–	1.95 µM	7.86 µM	0.729 µM	> 100 µM	3.51 µM	22.4 µM
Cn1cc(-c2csc(-c3cn(CCCN4CCCCC4)c4ccccc34)n2)c2cccnc21	1.89 µM	3.62 µM	1.96 µM	3.65 µM	1.51 µM	2.93 µM	1.87 µM	3.47 µM	–	–	–	–	1.95 µM	3.74 µM	1.82 µM	3.61 µM
Cc1[nH]c2ccc(F)cc2c1-c1nc2c3cccnc3c3ncccc3c2[nH]1	0.479 µM	> 100 µM	–	–	–	–	0.426 µM	> 100 µM	–	–	0.358 µM	> 100 µM	0.374 µM	> 100 µM	0.147 µM	–
COc1ccc(C(=O)/C=C/c2cccc(Nc3ccnc4cc(Cl)ccc34)c2)cc1	1.64 µM	> 100 µM	–	–	–	–	2.13 µM	> 100 µM	–	–	–	–	1.98 µM	20 µM	3.85 µM	> 100 µM
C=C1CC[C@@H]2[C@](C)(COC(C)=O)[C@H](OC(C)=O)CC[C@@]2(C)[C@@H]1CC(Nc1ccc(S(=O)(=O)Nc2ccc(Cl)nn2)cc1)C1=CCOC1=O (stereo partly specified)	–	–	1.67 µM	3.89 µM	1.45 µM	2.88 µM	1.4 µM	3.17 µM	1.87 µM	6.2 µM	2.28 µM	10 µM	1.07 µM	2.8 µM	1.46 µM	3.16 µM
CCC[CH2][Sn]1([CH2]CCC)[O]C2C(CO)OC(n3ccc(N)nc3=O)C2[O]1 (stereo unspecified)	–	–	1.28 µM	2.61 µM	1.16 µM	2.43 µM	1.41 µM	2.88 µM	2.01 µM	4.37 µM	1.19 µM	2.53 µM	–	–	1.48 µM	3.15 µM
Nc1ncnc2c1c(-c1ccc(Oc3ccccc3)cc1)nn2C[C@@H]1SSC[C@H]1O	0.732 µM	7.98 µM	1.44 µM	7.56 µM	1.07 µM	3.55 µM	–	–	2.96 µM	14 µM	2.18 µM	10.5 µM	17.3 µM	55 µM	2.14 µM	7.48 µM
CCOC(=O)C1CCCCN1C(=O)c1ccc(Nc2cnc3cc(C(F)(F)F)ccc3n2)cc1 (stereo unspecified)	–	–	15.7 µM	29.8 µM	14.2 µM	33.2 µM	14.7 µM	28.3 µM	14.1 µM	29.2 µM	18 µM	33.9 µM	17.8 µM	38.5 µM	23 µM	71.8 µM
CN(C)C(=O)c1cnc2oc3ccc(O)cc3c2c1-c1ccccc1	–	–	> 25 µM	> 25 µM	20.5 µM	> 25 µM	> 25 µM	> 25 µM	> 25 µM	> 25 µM	> 25 µM	> 25 µM	> 25 µM	> 25 µM	–	–
Cc1nn(-c2ccc([N+](=O)[O-])cc2)c2ncnc(N/N=C/c3ccccc3O)c12	1.3 µM	> 100 µM	1.47 µM	8.56 µM	–	–	0.654 µM	> 100 µM	0.337 µM	3.66 µM	0.496 µM	1.82 µM	–	–	0.385 µM	10.4 µM
CCOC(=O)c1cc2c(n1Cc1cc(OC)c(OC)c(OC)c1)-c1oncc1CCC2	0.138 µM	2.67 µM	0.177 µM	28.5 µM	0.303 µM	> 67.4 µM	–	–	0.0614 µM	> 100 µM	0.105 µM	> 27.8 µM	0.186 µM	> 100 µM	0.109 µM	0.495 µM
Oc1c(Cl)c(Cl)c(O)c2c1CCCC2	–	44.6 µM	–	30.5 µM	–	5.28 µM	–	34.1 µM	–	38 µM	–	–	–	3.92 µM	–	3.74 µM
[O-]c1ccccc1/C=N/C(/N=C/c1ccccc1[O-])c1ccccc1O.[O-]c1ccccc1/C=N/C(/N=C/c1ccccc1[O-])c1ccccc1O.[Zr+4]	42 µM	> 100 µM	33.4 µM	> 100 µM	14.4 µM	98.7 µM	28.2 µM	> 100 µM	> 100 µM	> 100 µM	–	–	26.6 µM	> 100 µM	–	–
CCSc1nc(SCC)c2c(-c3ccc(OC)c(OC)c3)c(C#N)c(SCC)nc2n1	–	–	39.4 µM	> 100 µM	32.9 µM	> 100 µM	18.7 µM	57.8 µM	14.4 µM	45 µM	5.39 µM	25.3 µM	61.1 µM	> 100 µM	91.5 µM	> 100 µM
CCN1C(=O)N(CC)C2C1NN=c1s/c(=C\c3ccccn3)c(=O)n12 (stereo unspecified)	0.681 µM	> 100 µM	> 100 µM	> 100 µM	2.51 µM	> 100 µM	–	–	0.977 µM	> 100 µM	0.752 µM	> 100 µM	0.743 µM	> 100 µM	1.16 µM	11.6 µM

From PubChem BioAssay (NCI)
